From patent EP2853293B1, “Thioninium compounds and their use” (WisTa Laboratories Ltd., priority 2006, dated 2007) come the findings set out here.

Where a name gives a salt, the structure may show the parent alone. Read-outs that look alike come from different tables or passages of the source.

The target of data set [1] is T1, full-length tau ("T40") in fibroblast cells (3T6) (Homo sapiens, UniProt P10636).
T1 construct: fibroblast cells (3T6) express full-length tau ("T40") under control of an inducible promotor; low constitutive levels of the PHF-core tau fragment (12 kD fragment); expressed in transfected cells; host or cells: 3T6 fibroblast cells
T1 sequence (P10636 2-441 isoform P10636-8 limits assumed): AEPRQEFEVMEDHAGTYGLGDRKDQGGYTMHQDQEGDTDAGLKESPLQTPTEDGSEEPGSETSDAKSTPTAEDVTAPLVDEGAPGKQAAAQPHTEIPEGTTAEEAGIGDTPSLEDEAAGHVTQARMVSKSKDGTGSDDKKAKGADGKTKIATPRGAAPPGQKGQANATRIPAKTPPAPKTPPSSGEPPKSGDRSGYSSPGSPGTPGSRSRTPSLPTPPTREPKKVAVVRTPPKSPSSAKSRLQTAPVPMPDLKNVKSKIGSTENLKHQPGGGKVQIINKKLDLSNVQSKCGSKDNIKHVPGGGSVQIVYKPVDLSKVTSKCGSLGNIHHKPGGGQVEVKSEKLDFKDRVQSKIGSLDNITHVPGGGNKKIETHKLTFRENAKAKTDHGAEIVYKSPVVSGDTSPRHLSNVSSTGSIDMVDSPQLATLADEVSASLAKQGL
Briefly: Cell-based assay for establishing EC50 (inhibition of generation of the 12 kD PHF-core tau fragment). As to conditions: concentration at which there is a 50% inhibition of generation of the 12 kD fragment; 3T6 cells. From the text: In essence, fibroblast cells (3T6) express full-length tau ("T40") under control of an inducible promotor, and low constitutive levels of the PHF-core tau fragment (12 kD fragment).
This is referred to as the EC50 value.

The subject of the next data set is fibroblast cells (3T6). As to conditions: cell numbers after 24 hrs exposure, lactate dehydrogenase assay after lysis of remaining cells.
For data set [2], the target named is T2, tau-tau binding (truncated tau residues 297-390; dGA, and full-length tau (T40)) (Homo sapiens, UniProt P10636). Particulars: read-out: B50; concentration of compound required to inhibit the tau-tau binding by 50%.
T2 sequence (P10636 614-707): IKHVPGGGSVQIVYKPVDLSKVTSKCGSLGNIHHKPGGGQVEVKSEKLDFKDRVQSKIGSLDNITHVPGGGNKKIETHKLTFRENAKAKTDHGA
T2 sequence (P10636 1-441 isoform P10636-8): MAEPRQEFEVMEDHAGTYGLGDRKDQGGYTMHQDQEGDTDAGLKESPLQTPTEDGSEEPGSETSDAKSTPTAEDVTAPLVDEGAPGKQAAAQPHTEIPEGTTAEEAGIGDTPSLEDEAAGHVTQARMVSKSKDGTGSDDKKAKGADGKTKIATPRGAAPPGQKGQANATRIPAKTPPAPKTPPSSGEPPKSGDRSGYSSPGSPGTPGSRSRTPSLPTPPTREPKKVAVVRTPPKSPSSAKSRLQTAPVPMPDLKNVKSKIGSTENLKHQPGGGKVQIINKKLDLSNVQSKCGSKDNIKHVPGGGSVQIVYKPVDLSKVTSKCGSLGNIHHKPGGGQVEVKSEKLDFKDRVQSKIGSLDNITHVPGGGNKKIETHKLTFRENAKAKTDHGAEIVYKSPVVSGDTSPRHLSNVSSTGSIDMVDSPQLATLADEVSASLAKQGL
Description: (§1) Briefly, a fragment of tau corresponding to the core repeat domain, which has been adsorbed to a solid phase substrate, is able to capture soluble full-length tau and bind tau with high affinity.
(§2) The aqueous phase binding buffer contained 0.05% Tween-20 and 1% gelatine in phosphate-buffered saline (pH7.4).
The target in data set [3] is T2, tau-tau binding (truncated tau residues 297-390; dGA, and full-length tau (T40)). The experiment in a line: biochemical.
Description: as §1, §2

On to `Cc1cc(N(C)C)cc2[s+]c3cc(N(C)C)cc(C)c3nc12` [DMMTC, 1,9-dimethyl-methyl-thioninium chloride, reference compound], for which the response in data set [1] was half-maximal at 40 ± 4 nM (EC50). The LD50 in the data set with fibroblast cells (3T6) is reported as 2.7 ± 1.2 (6) µM.

In the case of `CCc1cc(N(C)C)cc2[s+]c3cc(N(C)C)cc(CC)c3nc12` [DEMTC, 1,9-diethyl-methyl-thioninium chloride], a half-maximal effect in data set [1] (EC50) was put at 1.6 ± 0.6 nM. Moreover, the LD50 with fibroblast cells (3T6) was 3.3 ± 0.6 (22) µM.

Consider ethyl-thioninium chloride [ETC], for which the EC50 (usually the concentration giving half of the maximal effect) in data set [1] was determined as 70 ± 7 nM. Also, the IC50 in data set [2] was 49000 ± 8500 nM. Moreover, the LD50 in the data set on fibroblast cells (3T6) is recorded as 32.0 ± 4.0 (26) µM.

In data set [1], `CCc1cc(N(CC)CC)cc2[s+]c3cc(N(CC)CC)cc(CC)c3nc12` [DEETC, 1,9-diethyl-ethyl-thioninium chloride] gave an EC50 of 0.6 ± 0.3 nM. The IC50 in data set [2] stood at 3700 ± 500 nM. Also, in the data set with fibroblast cells (3T6), the LD50 was 1.6 ± 0.4 (13) µM.

On to `CCN(CC)c1cc(C)c2nc3c(C)cc(N(CC)CC)cc3[s+]c2c1` [DMETC, 1,9-dimethyl-ethyl-thioninium chloride], for which the half-maximal effective concentration (EC50) in data set [1] was determined as 4 ± 1 nM. Also, in data set [2], the IC50 was found to be 4500 ± 300 nM. Further, the LD50 with fibroblast cells (3T6) is reported as 4.2 ± 2.2 (4) µM.

The compound `CCN(CC)c1ccc2nc3ccc(=[N+](CC)CC)cc-3sc2c1` [ETI, ethyl-thioninium iodide] yielded an EC50 in data set [1] of 60 nM. Besides, the IC50 in data set [2] was over 500000 nM.

With `CCN(CC)c1ccc2nc3ccc(=[N+](CC)CC)cc-3sc2c1` [ETI.HI, ethyl-thioninium iodide hydrogen iodide mixed salt], in data set [3], the IC50 stood at 83000 nM.
